Test results from patent US11992011B2, “Compounds for controlling plant pathogens” (VIB VZW, priority 2017, dated 2024).

Columns and labels:
OsPAL4 = experiment: qRT-PCR in rice roots, OsPAL4 (Example 19); format: in vivo, Oryza sativa; settings: rice cv. Bomba root tissue; 100 μM; harvested 13 days after germination; N=3 pools
Experimental: (§1) After quality control, qPCR was carried out.

OsWRKY45 = experiment: qRT-PCR in rice roots, OsWRKY45 (Example 19); format: in vivo, Oryza sativa; settings: rice cv. Bomba root tissue; 100 μM; harvested 13 days after germination; N=3 pools
Experimental: as §1

OsPAL6 = experiment: qRT-PCR in rice roots, OsPAL6 (Example 19); format: in vivo, Oryza sativa; settings: rice cv. Bomba root tissue; 100 μM; harvested 13 days after germination; N=3 pools
Experimental: as §1

Meloidogyne graminicola [1] = experiment: Meloidogyne graminicola infection in rice, second experiment (Example 4); format: in vivo; settings: infected rice, 100 μM; for median number of galls lower compared to untreated controls: 13 days after infection; for plants in which necrosis was present: absent in control plants; for Gall number: harvested 13 days after inoculation; for Gall number / Fraction of empty galls / Galls per adventitious root / Number of J2 / Number of J3 + J4 / Number of adults (with eggs) / Number of adults (without eggs) / Total nematodes: median (IQR); for Likelihood of necrosis: value ± spread
Experimental: (§2) Seeds were germinated on wet tissue paper at 30° C. in the dark for three days, followed by transfer to individual PVC tubes (for nematode infection) containing SAP (Reversat et al., 1999). SAP (sand-absorbent polymer) is a mixture of fine silica sand and ultra-absorbent acrylic copolymer (DCM AquaPerla, DSM, Grobbendonk, Belgium) in a ratio of 1 kg sand to 1.5 g of dry copolymer.
(§3) Before use, each tube was washed in soapy water and dried in an oven at 70° C. for two days. […] The first two days after transfer, the tubes were covered with a polyethylene film (Saran Film, Dow Chemicals, Midland, USA) to prevent excessive evaporation. Seedlings were watered three times per week with 8 ml of Hoagland solution (Hoagland, 1938).
(§4) M. graminicola was extracted from infected Echinocloa crus-galli roots grown in potting soil at 25° C. Roots were washed until most soil was removed, after which they were cut into short fragments (with special care taken to cut open any outwardly visible galls). The cut material was put in […] pore diameter sieves which were put into a tap water bath at room temperature for three days. The water was then poured over a […] mesh sieve. The sieve surface was washed with approximately 50 ml of non-demineralized water, which was collected into a beaker before it could seep through the sieve.
(§5) The number of nematodes in five 100 μl samples taken from the nematode suspension was counted under a stereo microscope and averaged to determine inoculum concentration. Each plant (grown per the protocol outlined in the previous section) was then inoculated by injecting the desired number of nematodes in the SAP surrounding the root system using a micro-pipette.
Infection experiments with M. graminicola were performed by inoculating host plants 14 days after transfer to SAP by introducing the desired amount of J2 juveniles next to the root system using a micro pipette. Rice plants (cv. Nipponbare or Kitaake) were inoculated with 250 J2 juveniles per plant; wheat plants (cv. Sahara) were inoculated with 600 J2 juveniles per plant. Plants were harvested 14 days after inoculation. At this point, the plants were phenotyped by measuring the shoot and root length with a ruler, counting the number of adventitious roots and in some experiments by measuring leaf area using the EasyLeafArea software (Easlon and Bloom, 2014) and by determining shoot dry mass after 72 hours of drying in an oven at 70° C. Root systems were then stained in acid fuchsine as described in (Byrd et al., 1983) and left to destain in glycerol with 1 ml/l fuming HCl added for approximately ten days. The number of galls and nematodes was then counted using a binocular microscope. […]
The second experiment was methodologically similar to the first. This time, plants were grown for 15 days before inoculation with 210 nematodes on average and harvested 13 days after inoculation. […]

Meloidogyne graminicola [2] = experiment: M. graminicola infection in wild type and OsWRKY45 knockdown rice (Example 16); format: in vivo; settings: for Likelihood of necrosis / Fraction of empty galls / Fraction of small galls / Gall number / Galls per AR: MDCA/PA spray; for Fraction of empty galls / Fraction of small galls / Gall number / Galls per AR: median (interquartile range); for change of number of galls per root system, WRKY45 treated vs WRKY45 control: WRKY45-RNAi rice; for change of number of galls per root system, WT treated vs WT+CON: wild type rice
Experimental: (§6) Infection experiments with M. graminicola were performed by inoculating host plants 14 days after transfer to SAP by introducing the desired amount of J2 juveniles next to the root system using a micro pipette. Rice plants (cv. Nipponbare or Kitaake) were inoculated with 250 J2 juveniles per plant; wheat plants (cv. Sahara) were inoculated with 600 J2 juveniles per plant. Plants were harvested 14 days after inoculation. At this point, the plants were phenotyped by measuring the shoot and root length with a ruler, counting the number of adventitious roots and in some experiments by measuring leaf area using the EasyLeafArea software (Easlon and Bloom, 2014) and by determining shoot dry mass after 72 hours of drying in an oven at 70° C. Root systems were then stained in acid fuchsine as described in (Byrd et al., 1983) and left to destain in glycerol with 1 ml/l fuming HCl added for approximately ten days. The number of galls and nematodes was then counted using a binocular microscope.
To test the potential involvement of salicylic acid (SA) in MDCA/PA defense enhancement the response of MDCA/PA-treated RNAi-knockdown mutants in OsWRKY45 to nematode infection was examined. The OsWRKY proteins form a family of rice transcription factors that regulate a broad range of cellular processes, most of which are related to abiotic and biotic stress response (Jimmy and Babu, 2015). In keeping with their important role in defense, many OsWRKY genes are controlled by the plant defense hormones jasmonic acid and SA (Ryu et al., 2006; Jimmy and Babu, 2015).
OsWRKY45 is a master regulator of SA-induced defense responses. Knockdown lines in this gene are useful for testing whether MDCA/PA defense enhancement depends on SA signaling, as OsWRKY45 (unlike most other defense genes) is believed to be triggered only by SA (Ryu et al. 2006; incorporated by reference).
Galls were counted and classified by their size and by whether they were empty or not. The presence or absence of necrosis in the root system was also recorded.

OsICS1 = experiment: qRT-PCR in rice roots, OsICS1 (Example 19); format: in vivo, Oryza sativa; settings: rice cv. Bomba root tissue; 100 μM; harvested 13 days after germination; N=3 pools
Experimental: as §1

Meloidogyne graminicola [3] = experiment: Meloidogyne graminicola infection in rice, first experiment (Example 3); format: in vivo; settings: infected rice, 100 μM, median (IQR), n = 8; for Gall number: harvested twelve days after infection; for Galls per AR: per adventitious root
Experimental: as §2, §3, §4, §5, §6
Rice plants were germinated for three days, transferred to SAP and grown for twelve days. After twelve days, 240 M. graminicola J2 nematodes on average were added to each plant. Plants were harvested twelve days after infection and roots were stained with acid fuchsine to visualize galls and nematodes.

OsC4H = experiment: qRT-PCR in rice roots, OsC4H (Example 19); settings: rice cv. Bomba root tissue; 100 μM; harvested 13 days after germination; N=3 pools
OsPAL2 = experiment: qRT-PCR in rice roots, OsPAL2 (Example 19); format: in vivo, Oryza sativa; settings: rice cv. Bomba root tissue; 100 μM; harvested 13 days after germination; N=3 pools
Experimental: as §1

SMILES | Fold change vs. control, OsPAL4 expression (OsPAL4) | Fold change vs. control, OsWRKY45 expression (OsWRKY45) | Fold change vs. control, OsPAL6 expression (OsPAL6) | median number of galls lower compared to untreated controls (Meloidogyne graminicola [1]) [%] | plants in which necrosis was present (Meloidogyne graminicola [1]) | Gall number (Meloidogyne graminicola [1]) | Fraction of empty galls (Meloidogyne graminicola [1]) | Galls per adventitious root (Meloidogyne graminicola [1]) | Number of J2 (Meloidogyne graminicola [1]) | Number of J3 + J4 (Meloidogyne graminicola [1]) | Number of adults (with eggs) (Meloidogyne graminicola [1]) | Number of adults (without eggs) (Meloidogyne graminicola [1]) | Total nematodes (Meloidogyne graminicola [1]) | Likelihood of necrosis (Meloidogyne graminicola [1]) | Likelihood of necrosis (Meloidogyne graminicola [2]; WRKY45-RNAi knockdown rice) | Fraction of empty galls (Meloidogyne graminicola [2]; WRKY45-RNAi knockdown rice) | Fraction of small galls (Meloidogyne graminicola [2]; WRKY45-RNAi knockdown rice) | Gall number (Meloidogyne graminicola [2]; WRKY45-RNAi knockdown rice) | Galls per AR (Meloidogyne graminicola [2]; WRKY45-RNAi knockdown rice) | change of number of galls per root system, WRKY45 treated vs WRKY45 control (Meloidogyne graminicola [2]) [%] | also measured
O=C(O)/C=C/c1ccc2c(c1)OCO2 [MDCA, 3,4-methylenedioxycinnamic acid] | 2.38 | 1.67 | 1.40 | 28 | roughly 75% | 8.0 (IQR = 1.0) | 0.11 (IQR = 0.03) | 0.80 (IQR = 0.17) | 0.0 (IQR = 0.0) | 7.0 (IQR = 5.0) | 0.0 (IQR = 1.0) | 10.0 (IQR = 2.0) | 17.0 (IQR = 5.0) | 0.78 ± 0.44 | 0.50 ± 0.53 | 0.09 (0.01) | 0.94 (0.03) | 52.0 (10.8) | 3.3 (0.7) | −23 | Likelihood of necrosis (Meloidogyne graminicola [2]; Wild type rice): 0.63 ± 0.52; Fraction of empty galls (Meloidogyne graminicola [2]; Wild type rice): 0.02 (0.04); Fraction of small galls (Meloidogyne graminicola [2]; Wild type rice): 0.86 (0.07); Gall number (Meloidogyne graminicola [2]; Wild type rice): 36.5 (10.3); Galls per AR (Meloidogyne graminicola [2]; Wild type rice): 2.3 (0.6); change of number of galls per root system, WT treated vs WT+CON (Meloidogyne graminicola [2]): −42%; Fold change vs. control, OsICS1 expression (OsICS1): 1.73; Gall number (Meloidogyne graminicola [3]): 11.5 (IQR = 3.3); Empty galls (Meloidogyne graminicola [3]): 0.5 (IQR = 1.3); Fraction of small galls (Meloidogyne graminicola [3]): 0.84 (IQR = 0.13); Number of J2 (Meloidogyne graminicola [3]): 7.5 (IQR = 8.0); Number of J3 + J4 (Meloidogyne graminicola [3]): 8.0 (IQR = 8.3); Number of adults (with eggs) (Meloidogyne graminicola [3]): 3.0 (IQR = 13.3); Number of adults (without eggs) (Meloidogyne graminicola [3]): 20.0 (IQR = 7.3); Total nematodes (Meloidogyne graminicola [3]): 41.5 (IQR = 14.3); Galls per AR (Meloidogyne graminicola [3]): 0.78 (IQR = 0.22); Fold change vs. control, OsC4H expression (OsC4H): 3.73; Fold change vs. control, OsPAL2 expression (OsPAL2): 1.86
O=C(O)c1ccc2c(c1)OCO2 [PA, Piperonylic acid] | 3.04 | 1.30 | 1.26 | 36 | roughly 75% | 7.0 (IQR = 1.8) | 0.13 (IQR = 0.17) | 0.62 (IQR = 0.13) | 0.0 (IQR = 1.0) | 8.0 (IQR = 2.5) | 0.0 (IQR = 0.0) | 5.0 (IQR = 1.8) | 13.5 (IQR = 2.5) | 0.70 ± 0.48 | 0.60 ± 0.52 | 0.02 (0.03) | 0.91 (0.05) | 39.0 (20.3) | 2.2 (0.8) | −41 | Likelihood of necrosis (Meloidogyne graminicola [2]; Wild type rice): 0.78 ± 0.44; Fraction of empty galls (Meloidogyne graminicola [2]; Wild type rice): 0.03 (0.03); Fraction of small galls (Meloidogyne graminicola [2]; Wild type rice): 0.93 (0.06); Gall number (Meloidogyne graminicola [2]; Wild type rice): 33.0 (10.0); Galls per AR (Meloidogyne graminicola [2]; Wild type rice): 1.8 (0.5); change of number of galls per root system, WT treated vs WT+CON (Meloidogyne graminicola [2]): −42%; Fold change vs. control, OsICS1 expression (OsICS1): 1.36; Gall number (Meloidogyne graminicola [3]): 12.5 (IQR = 4.0); Empty galls (Meloidogyne graminicola [3]): 0.0 (IQR = 1.0); Fraction of small galls (Meloidogyne graminicola [3]): 0.76 (IQR = 0.08); Number of J2 (Meloidogyne graminicola [3]): 9.0 (IQR = 8.3); Number of J3 + J4 (Meloidogyne graminicola [3]): 5.0 (IQR = 5.5); Number of adults (with eggs) (Meloidogyne graminicola [3]): 0.5 (IQR = 1.3); Number of adults (without eggs) (Meloidogyne graminicola [3]): 19.5 (IQR = 11.8); Total nematodes (Meloidogyne graminicola [3]): 32.5 (IQR = 17.8); Galls per AR (Meloidogyne graminicola [3]): 0.83 (IQR = 0.29); Fold change vs. control, OsC4H expression (OsC4H): 9.87; Fold change vs. control, OsPAL2 expression (OsPAL2): 1.29
